# Laboratory results as given in patent publication US20120022058A1, “4,5-DIHYDRO-1H-PYRAZOLE COMPOUNDS AND THEIR PHARMACEUTICAL USES” (Pfizer Inc., priority 2009, published 2012).
# Target: T1, MR (Homo sapiens, UniProt P08235)
# T1 construct: expressed in transfected cells; host or cells: Huh7 human liver cells, transient transfection
# T1 sequence (P08235 726-964 limits assumed): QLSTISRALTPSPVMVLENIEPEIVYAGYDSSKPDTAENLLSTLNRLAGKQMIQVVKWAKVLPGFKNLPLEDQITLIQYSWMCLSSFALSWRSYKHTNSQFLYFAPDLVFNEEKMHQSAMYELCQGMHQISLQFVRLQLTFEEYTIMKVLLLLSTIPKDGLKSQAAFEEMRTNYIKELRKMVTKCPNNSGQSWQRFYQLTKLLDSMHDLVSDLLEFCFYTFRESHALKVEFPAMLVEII
# Experiment: Cell-Based Reporter Assay (Gal4 DBD-MR LBD luciferase reporter, antagonist mode);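 note: cells co-transfected with a Gal4 response element luciferase plasmid, compound exposure overnight before lysis and luminescence counting, IC50 reflects reduced aldosterone-stimulated reporter signal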
# Conditions: antagonist mode vs aldosterone at EC80; transfected human liver cells (Huh7); luciferase readout; Examples 3, 6, 12 and 13 tested in analogous format with minor variations
row,SMILES,IC50 [nM]
1,"Cc1nc(N2N=C(c3cccc(S(C)(=O)=O)c3)C[C@@H]2C2CCCC2)ccc1C#N [Example 21, (R)-6-(5-cyclopentyl-3-(3-(methylsulfonyl)phenyl)-4,5-dihydro-1H-pyrazol-1-yl)-2-methylnicotinonitrile]",105
2,"COc1cc(C2=NN(c3ccc(C#N)c(Cl)c3)[C@@H](C3CCCC3)C2)ncc1C(=O)O [Example 13, (R)-6-(1-(3-chloro-4-cyanophenyl)-5-cyclopentyl-4,5-dihydro-1H-pyrazol-3-yl)-4-methoxynicotinic acid]",2000
3,COc1cc(C2=NN(c3ccc(C#N)c(C)n3)[C@@H](C3CCCC3)C2)ccc1C(N)=O [Example 27],5.2
4,"CCS(=O)(=O)c1ccc(C2=NN(c3ccc(C#N)c(C)n3)[C@@H](C3CCCC3)C2)cc1 [Example 22, (R)-6-(5-cyclopentyl-3-(4-(ethylsulfonyl)phenyl)-4,5-dihydro-1H-pyrazol-1-yl)-2-methylnicotinonitrile]",13.5

# The next lines start with the values.
row,IC50 [nM],SMILES
1,208,"Cc1nc(N2N=C(c3cc(F)c(O)c(F)c3)C[C@@H]2C2CCCC2)ccc1C#N [Example 61, (R)-6-(5-cyclopentyl-3-(3,5-difluoro-4-hydroxyphenyl)-4,5-dihydropyrazol-1-yl)-2-methylnicotinonitrile]"
2,20.6,"Cc1nc(N2N=C(c3ccc4c(c3)CCC(=O)N4)C[C@@H]2C2CCCC2)ccc1C#N [Example 45, (R)-6-(5-cyclopentyl-3-(2-oxo-1,2,3,4-tetrahydroquinolin-6-yl)-4,5-dihydro-1H-pyrazol-1-yl)-2-methylnicotinonitrile]"
3,30.6,"Cc1nc(N2N=C(c3cccc(C(N)=O)c3)C[C@@H]2C2CCCC2)ccc1C#N [Example 29, (R)-3-(1-(5-cyano-6-methylpyridin-2-yl)-5-cyclopentyl-4,5-dihydro-1H-pyrazol-3-yl)benzamide]"
4,147,"COc1nc(C2=NN(c3ccc(C#N)c(C)c3)C(C3CC(F)(F)C3)C2)ccc1C(=O)O (centres unmarked) [Example 70, 6-(1-(4-cyano-3-methylphenyl)-5-(3,3-difluorocyclobutyl)-4,5-dihydro-1H-pyrazol-3-yl)-2-methoxynicotinic acid]"
